Assay results taken from the NIST ThermoML archive (doi:10.1021/acs.jced.8b00132).
Several values for one entry are separate records, joined by “and”; a condition that tells them apart may be missing. Equal values may be shown once.

O=C(C(F)(F)C(F)(F)F)C(F)(C(F)(F)F)C(F)(F)F [dodecafluoro-2-methylpentan-3-one]
Settings	thermal conductivity
389.64 K, 670 kPa, Liquid, transient hot wire	0.04285 W/m/K
389.64 K, 9501 kPa, Liquid, transient hot wire	0.04974 W/m/K
389.64 K, 9504 kPa, Liquid, transient hot wire	0.04979 W/m/K
389.65 K, 670 kPa, Liquid, transient hot wire	0.04282 W/m/K
389.65 K, 53766 kPa, Liquid, transient hot wire	0.06802 W/m/K
389.66 K, 53751 kPa, Liquid, transient hot wire	0.06802 W/m/K
389.7 K, 21438 kPa, Liquid, transient hot wire	0.05608 W/m/K
389.7 K, 21439 kPa, Liquid, transient hot wire	0.05607 W/m/K
389.72 K, 40368 kPa, Liquid, transient hot wire	0.0636 W/m/K
389.72 K, 67805 kPa, Liquid, transient hot wire	0.07218 W/m/K
389.72 K, 67826 kPa, Liquid, transient hot wire	0.07217 W/m/K
389.73 K, 40356 kPa, Liquid, transient hot wire	0.06359 W/m/K
389.74 K, 5608 kPa, Liquid, transient hot wire	0.04712 W/m/K
389.75 K, 14721 kPa, Liquid, transient hot wire	0.0528 W/m/K
389.76 K, 2811 kPa, Liquid, transient hot wire	0.04489 W/m/K
389.76 K, 14719 kPa, Liquid, transient hot wire	0.05276 W/m/K
389.77 K, 2810 kPa, Liquid, transient hot wire	0.04491 W/m/K
389.79 K, 29871 kPa, Liquid, transient hot wire	0.0597 W/m/K
389.8 K, 29864 kPa, Liquid, transient hot wire	0.05959 W/m/K
389.8 K, 53730 kPa, Liquid, transient hot wire	0.06799 W/m/K
389.81 K, 53715 kPa, Liquid, transient hot wire	0.06798 W/m/K
389.83 K, 9502 kPa, Liquid, transient hot wire	0.0497 W/m/K
389.83 K, 9503 kPa, Liquid, transient hot wire	0.04976 W/m/K
389.84 K, 669 kPa, Liquid, transient hot wire	0.04282 W/m/K and 0.04287 W/m/K
389.85 K, 670 kPa, Liquid, transient hot wire	0.0428 W/m/K and 0.04285 W/m/K
389.87 K, 21435 kPa, Liquid, transient hot wire	0.05603 W/m/K
389.87 K, 67783 kPa, Liquid, transient hot wire	0.07218 W/m/K
389.88 K, 40337 kPa, Liquid, transient hot wire	0.06356 W/m/K
389.88 K, 40347 kPa, Liquid, transient hot wire	0.06347 W/m/K
389.88 K, 67759 kPa, Liquid, transient hot wire	0.07209 W/m/K
389.94 K, 5610 kPa, Liquid, transient hot wire	0.04715 W/m/K
389.95 K, 5610 kPa, Liquid, transient hot wire	0.04716 W/m/K
389.95 K, 14717 kPa, Liquid, transient hot wire	0.05274 W/m/K
389.96 K, 2811 kPa, Liquid, transient hot wire	0.04493 W/m/K
389.96 K, 14717 kPa, Liquid, transient hot wire	0.05275 W/m/K
389.97 K, 2812 kPa, Liquid, transient hot wire	0.04492 W/m/K
389.97 K, 29861 kPa, Liquid, transient hot wire	0.05954 W/m/K
389.97 K, 29862 kPa, Liquid, transient hot wire	0.05955 W/m/K
389.97 K, 53688 kPa, Liquid, transient hot wire	0.06792 W/m/K
389.97 K, 53707 kPa, Liquid, transient hot wire	0.06846 W/m/K
390.03 K, 9500 kPa, Liquid, transient hot wire	0.04976 W/m/K
390.03 K, 9503 kPa, Liquid, transient hot wire	0.04976 W/m/K
390.06 K, 669 kPa, Liquid, transient hot wire	0.0428 W/m/K
390.06 K, 670 kPa, Liquid, transient hot wire	0.04284 W/m/K and 0.04279 W/m/K
390.06 K, 21434 kPa, Liquid, transient hot wire	0.05598 W/m/K
390.06 K, 21436 kPa, Liquid, transient hot wire	0.056 W/m/K
390.06 K, 40331 kPa, Liquid, transient hot wire	0.0635 W/m/K
390.06 K, 40336 kPa, Liquid, transient hot wire	0.06349 W/m/K
390.15 K, 5609 kPa, Liquid, transient hot wire	0.04709 W/m/K and 0.04706 W/m/K
390.15 K, 14714 kPa, Liquid, transient hot wire	0.05264 W/m/K
390.15 K, 29850 kPa, Liquid, transient hot wire	0.0595 W/m/K
390.16 K, 14712 kPa, Liquid, transient hot wire	0.05268 W/m/K
390.16 K, 29857 kPa, Liquid, transient hot wire	0.0595 W/m/K
390.18 K, 2812 kPa, Liquid, transient hot wire	0.04486 W/m/K
390.19 K, 2812 kPa, Liquid, transient hot wire	0.04487 W/m/K
390.24 K, 9499 kPa, Liquid, transient hot wire	0.04963 W/m/K
390.25 K, 9501 kPa, Liquid, transient hot wire	0.04969 W/m/K
390.25 K, 21437 kPa, Liquid, transient hot wire	0.05589 W/m/K
390.26 K, 21435 kPa, Liquid, transient hot wire	0.05593 W/m/K
390.28 K, 669 kPa, Liquid, transient hot wire	0.04276 W/m/K and 0.04278 W/m/K
390.29 K, 670 kPa, Liquid, transient hot wire	0.04279 W/m/K and 0.04277 W/m/K
390.36 K, 14712 kPa, Liquid, transient hot wire	0.05264 W/m/K
390.36 K, 14714 kPa, Liquid, transient hot wire	0.05262 W/m/K
390.37 K, 5610 kPa, Liquid, transient hot wire	0.04711 W/m/K
390.37 K, 5611 kPa, Liquid, transient hot wire	0.04706 W/m/K
390.42 K, 2814 kPa, Liquid, transient hot wire	0.04483 W/m/K
390.42 K, 2815 kPa, Liquid, transient hot wire	0.04488 W/m/K
390.46 K, 9497 kPa, Liquid, transient hot wire	0.04961 W/m/K
390.46 K, 9500 kPa, Liquid, transient hot wire	0.04968 W/m/K
390.52 K, 669 kPa, Liquid, transient hot wire	0.04282 W/m/K and 0.04283 W/m/K
390.53 K, 670 kPa, Liquid, transient hot wire	0.04282 W/m/K and 0.04286 W/m/K
390.57 K, 5608 kPa, Liquid, transient hot wire	0.04706 W/m/K
390.6 K, 5609 kPa, Liquid, transient hot wire	0.04709 W/m/K
390.66 K, 2816 kPa, Liquid, transient hot wire	0.04487 W/m/K
390.66 K, 2817 kPa, Liquid, transient hot wire	0.04488 W/m/K
390.76 K, 669 kPa, Liquid, transient hot wire	0.04287 W/m/K
390.78 K, 669 kPa, Liquid, transient hot wire	0.04304 W/m/K
402.21 K, 448 kPa, Gas, hot wire	0.02088 W/m/K
402.23 K, 447 kPa, Gas, hot wire	0.02061 W/m/K
402.27 K, 307 kPa, Gas, hot wire	0.02002 W/m/K and 0.01983 W/m/K
402.31 K, 156 kPa, Gas, hot wire	0.01939 W/m/K
402.31 K, 157 kPa, Gas, hot wire	0.01939 W/m/K
402.33 K, 446 kPa, Gas, hot wire	0.02071 W/m/K
402.34 K, 445 kPa, Gas, hot wire	0.02068 W/m/K
